Assay results published in patent US20260317319A1, “NOVEL ERGOLINES AND METHODS OF TREATING MOOD DISORDERS” (Gilgamesh Pharma Inc., priority 2023, published 2026).
Read-outs that look alike come from different tables or passages of the source.

Key:
5-HT2B receptor [1] = biological target: T1, 5-HT2B receptor (Homo sapiens, UniProt P41595); experiment: cell-based; type: cell-based; details: Ca2+ flux; for Emax: HEK293, agonist, HEK293, max dose, read-out: 5-HT2B % Act @ Max Dose; for EC50: agonist, HEK293
T1 construct: expressed in transfected cells; host or cells: HEK293, stably transfected
T1 sequence (P41595 whole entry): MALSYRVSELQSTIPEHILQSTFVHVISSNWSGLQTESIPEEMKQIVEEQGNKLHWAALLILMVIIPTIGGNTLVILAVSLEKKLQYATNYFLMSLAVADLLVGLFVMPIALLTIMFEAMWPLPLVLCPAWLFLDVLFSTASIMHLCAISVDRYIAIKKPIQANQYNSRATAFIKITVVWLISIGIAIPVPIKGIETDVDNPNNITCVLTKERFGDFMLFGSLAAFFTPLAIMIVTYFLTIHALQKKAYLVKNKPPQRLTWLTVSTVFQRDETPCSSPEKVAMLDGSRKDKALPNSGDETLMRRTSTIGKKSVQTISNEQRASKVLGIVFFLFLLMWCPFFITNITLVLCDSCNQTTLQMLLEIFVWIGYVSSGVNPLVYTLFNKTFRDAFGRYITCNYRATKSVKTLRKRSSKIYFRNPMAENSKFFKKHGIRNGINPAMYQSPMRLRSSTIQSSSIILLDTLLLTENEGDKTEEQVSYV
Procedure, shortened: (§1)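 FLIPR Tetra fluorescence read-out of calcium flux after compound addition. Receptor-expressing stable lines were used (HEK293 for 2A/2B; CHO with Gα15 for 1A), dye-loaded with Fluo-4 Direct and 2.5 mM final probenecid, 50 min at 37 °C.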

5-HT1A receptor = biological target: T2, 5-HT1A receptor (Homo sapiens, UniProt P08908); experiment: cell-based; details: agonist, Ca2+ flux; for Emax: CHO, CHO cells with Gα15, max dose, read-out: 5-HT1A % Act @ Max Dose; for EC50: CHO cells with Gα15
T2 construct: expressed in transfected cells; host or cells: CHO cells, stably transfected
T2 sequence (P08908 1-422): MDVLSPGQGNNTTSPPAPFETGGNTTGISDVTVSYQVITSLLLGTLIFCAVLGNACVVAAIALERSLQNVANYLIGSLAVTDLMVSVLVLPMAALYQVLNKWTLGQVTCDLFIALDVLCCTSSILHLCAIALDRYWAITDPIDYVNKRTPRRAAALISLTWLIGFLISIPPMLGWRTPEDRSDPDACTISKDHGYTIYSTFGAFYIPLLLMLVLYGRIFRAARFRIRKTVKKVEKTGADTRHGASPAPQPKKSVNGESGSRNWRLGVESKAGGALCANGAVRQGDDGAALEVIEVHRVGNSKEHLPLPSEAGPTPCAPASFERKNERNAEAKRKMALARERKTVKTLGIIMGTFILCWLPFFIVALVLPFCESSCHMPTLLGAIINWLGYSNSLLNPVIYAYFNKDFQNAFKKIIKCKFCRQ
Procedure, shortened: as §1

5-HT1B receptor = biological target: T3, 5-HT1B receptor (Homo sapiens, UniProt P28222); experiment: cAMP accumulation functional assay at 5-HT1B; type: cell-based; details: agonist, cAMP accumulation, max dose; read-out: 5-HT1B % Act @ Max Dose
T3 construct: expressed in transfected cells
T3 sequence (P28222 whole entry): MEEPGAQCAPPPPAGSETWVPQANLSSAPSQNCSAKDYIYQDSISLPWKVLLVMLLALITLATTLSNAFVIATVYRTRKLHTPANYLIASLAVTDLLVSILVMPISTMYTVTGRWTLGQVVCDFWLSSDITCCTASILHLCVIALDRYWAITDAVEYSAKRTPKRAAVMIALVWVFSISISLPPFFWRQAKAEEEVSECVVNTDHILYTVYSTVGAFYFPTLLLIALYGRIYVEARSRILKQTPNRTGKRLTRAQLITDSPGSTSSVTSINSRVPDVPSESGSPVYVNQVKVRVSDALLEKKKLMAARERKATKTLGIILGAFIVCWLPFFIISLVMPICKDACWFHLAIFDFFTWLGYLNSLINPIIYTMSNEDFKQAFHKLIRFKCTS
Procedure, shortened: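 Stably transfected human 5-HT1B cells were incubated 60 min at room temperature, after which detection reagent was applied for another 60 min at RT. The read-out was cAMP accumulation, used as a measure of agonist activity.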

[2] = biological target: T4, Alpha1A adrenergic receptor (Homo sapiens, UniProt P35348); experiment: Ca2+ flux functional assay at Alpha1A; type: cell-based; details: agonist, Ca2+ flux, max dose; read-out: Alpha 1A % Act @ Max Dose
T4 construct: expressed in transfected cells
T4 sequence (P35348 1-466): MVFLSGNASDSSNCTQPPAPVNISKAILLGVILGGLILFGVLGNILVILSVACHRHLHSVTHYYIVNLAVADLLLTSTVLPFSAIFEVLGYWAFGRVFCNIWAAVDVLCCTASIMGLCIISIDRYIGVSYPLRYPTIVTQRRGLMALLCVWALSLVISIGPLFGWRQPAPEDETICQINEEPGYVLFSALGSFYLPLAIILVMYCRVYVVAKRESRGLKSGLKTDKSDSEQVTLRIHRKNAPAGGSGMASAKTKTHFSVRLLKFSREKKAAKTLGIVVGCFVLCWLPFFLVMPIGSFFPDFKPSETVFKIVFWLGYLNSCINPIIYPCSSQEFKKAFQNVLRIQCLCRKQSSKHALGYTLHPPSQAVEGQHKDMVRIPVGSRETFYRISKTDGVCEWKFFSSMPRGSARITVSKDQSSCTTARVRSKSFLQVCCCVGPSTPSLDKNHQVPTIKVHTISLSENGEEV
Description: Disclosed compounds were tested for agonist activity at several adrenergic (Alpha1A and Alpha2A) and dopamine (D1 and D2) receptor subtypes using Ca^2+ flux functional assays, with the results summarized in Table 6. Selectivity for the 5-HT2A receptor over these other targets varied depending on the specific target and compound.
(§2) Functional Assays at Adrenergic and Dopamine Receptors. Agonist activity at Alpha1A, Alpha2A, D1, and D2 receptors was determined using a FLIPR Ca^2+ flux assay at WuXi AppTec (Hong Kong) Limited according to their standard protocols. Briefly, stably transfected cells expressing the receptor of interest were grown and plated in a 384 well plate and incubated at 37° C. and 5% CO2 overnight. A solution of 250 mM probenecid in 1 mL FLIPR assay buffer was prepared fresh. This was combined with a fluorescent dye (Fluo-4 Direct™) to make a final assay concentration of 2.5 mM. Compounds were diluted 1:3.16 for 10 points and 750 nL was added to a 384 well compound plate using ECHO along with 30 μL assay buffer. The fluorescent dye was then added to the assay plate along with assay buffer to a final volume of 40 μL. The cell plate was incubated for 50 min at 37° C. and 5% CO2 and placed into the FLIPR Tetra along with the compound plate. 10 μL of references and compounds were then transferred from the compound plate into the cell plate and the fluorescent signal was read.

in vitro [3] = type: in vitro ADME, human; details: HLM 0.50 mg/mL, NADPH 1 mM, 1 μM compound, pH 7.4, 37° C., 60 min; for microsomal CLint / half-life: human, microsomes; for microsomal CLint: read-out: Intrinsic clearance (Clint); for half-life: read-out: half-life (t1/2)
in vitro [4] = type: in vitro ADME, mouse; details: MLM (male CD-1) 0.50 mg/mL, NADPH 1 mM, 1 μM compound, pH 7.4, 37° C., 60 min; for microsomal CLint / half-life: mouse, microsomes; for microsomal CLint: read-out: Intrinsic clearance (Clint); for half-life: read-out: half-life (t1/2)
Text: MLM Stability Pooled MLM from male CD-1 mice (BIOIVT M00501) were used.

in vitro [5] = type: in vitro ADME, rat; details: RLM (male Sprague-Dawley) 0.50 mg/mL, NADPH 1 mM, 1 μM compound, pH 7.4, 37° C., 60 min; for microsomal CLint / half-life: rat, microsomes; for microsomal CLint: read-out: Intrinsic clearance (Clint); for half-life: read-out: half-life (t1/2)
Text: RLM Stability Pooled RLM from male Sprague-Dawley rats (Xenotech R1000) were used.

5-HT2A receptor [6] = biological target: T5, 5-HT2A receptor (Homo sapiens, UniProt P28223); experiment: cell-based; type: cell-based; parameters: expressed in transfected cells; host or cells: HEK293, stably transfected; details: Ca2+ flux; for Emax: HEK293, agonist, HEK293, max dose, read-out: 5-HT2A % Act @ Max Dose; for EC50: agonist, HEK293
T5 sequence (P28223 whole entry): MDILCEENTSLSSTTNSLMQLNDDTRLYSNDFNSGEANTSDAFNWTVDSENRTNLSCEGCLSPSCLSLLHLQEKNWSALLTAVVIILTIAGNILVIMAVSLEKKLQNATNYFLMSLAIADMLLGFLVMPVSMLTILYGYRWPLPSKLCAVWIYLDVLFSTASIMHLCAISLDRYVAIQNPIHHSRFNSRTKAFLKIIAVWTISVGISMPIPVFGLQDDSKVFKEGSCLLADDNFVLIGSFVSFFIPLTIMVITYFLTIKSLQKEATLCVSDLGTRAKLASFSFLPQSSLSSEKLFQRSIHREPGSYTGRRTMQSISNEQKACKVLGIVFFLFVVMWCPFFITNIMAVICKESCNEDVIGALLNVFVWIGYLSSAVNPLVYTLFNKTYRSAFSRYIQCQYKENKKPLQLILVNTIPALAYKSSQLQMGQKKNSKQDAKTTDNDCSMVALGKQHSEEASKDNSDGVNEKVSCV
Procedure, shortened: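 Using HEK293 lines for the 5-HT2 subtypes and Gα15-coupled CHO cells for 5-HT1A, compounds were tested as agonists. Fluorescent Ca2+ signal followed dye loading (Fluo-4 Direct, 2.5 mM final probenecid, 50 min, 37 °C).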

5-HT2B receptor [7] = biological target: T1, 5-HT2B receptor; experiment: 5-HT2B receptor radioligand binding ([3H]LSD); details: read-out: 5-HT2B Receptor Ki
5-HT2C receptor = biological target: T6, 5-HT2C receptor (Homo sapiens, UniProt P28335); experiment: Ca2+ flux functional assay at 5-HT2C (WuXi 5-HT2C protocol); type: cell-based; parameters: expressed in transfected cells; details: for Emax: agonist, tested using WuXi 5-HT2C protocol, max dose, read-out: 5-HT2C % Act @ Max Dose (* WuXi protocol)
T6 sequence (P28335 33-458): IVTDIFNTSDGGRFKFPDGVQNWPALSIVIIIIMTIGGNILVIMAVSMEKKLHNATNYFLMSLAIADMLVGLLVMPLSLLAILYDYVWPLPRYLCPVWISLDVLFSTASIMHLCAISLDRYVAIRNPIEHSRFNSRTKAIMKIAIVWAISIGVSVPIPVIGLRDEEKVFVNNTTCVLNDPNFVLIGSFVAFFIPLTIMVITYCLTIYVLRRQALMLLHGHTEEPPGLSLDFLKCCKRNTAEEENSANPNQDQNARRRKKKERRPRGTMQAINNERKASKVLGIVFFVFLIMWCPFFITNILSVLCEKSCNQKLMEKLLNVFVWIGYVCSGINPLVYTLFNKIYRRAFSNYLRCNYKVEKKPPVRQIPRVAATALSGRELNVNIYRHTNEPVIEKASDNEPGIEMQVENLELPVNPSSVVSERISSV
Description: Disclosed compounds were tested for agonist activity at several serotonin receptor subtypes (5-HT2A, […], 5-HT2C, and 5-HT1A) using Ca^2+ flux functional assays and the 5-HT1B receptor using a cAMP accumulation assay, with the results summarized in Table 4. […] Potent agonist activity was also observed at the other serotonin receptors tested, although the selectivity profile among the receptors varied across compounds. […] However, at the same time, the N-propyl compounds were more efficacious agonists at 5-HT2B than the corresponding N-methyl compounds. The selectivity of disclosed compounds for 5-HT2A over 5-HT2C and 5-HT1A was less predictable and varied widely across compounds. […] An azetidinyl amide substituent tended to increase potency at 5-HT1A relative to 5-HT2A.
as §2, with “5-HT2A, 5-HT2B,” for “Adrenergic”, “5-HT1A.” for “Dopamine Receptors.”, “5-HT2A, 5-HT2B, 5HT2C” for “Alpha1A, Alpha2A, D1,”, “5-HT1A” for “D2”, “interest and Gα15 in the case of 5-HT1A (HEK293 for 5-HT2A and 5-HT2B; CHO cells for 5-HT1A)” for “interest”

5-HT2A receptor [8] = biological target: T5, 5-HT2A receptor; experiment: biochemical; type: binding; parameters: expressed in transfected cells; host or cells: HEK293, stably transfected; details: [3H]ketanserin 1 nM; HEK293 stable cell line; 1 h, 25 °C
Procedure, shortened: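 Values reflect [^3H]ketanserin binding competition. Assay conditions were adapted from the literature.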

Compound | Emax (5-HT2B receptor [1]) [%] | Emax (5-HT1A receptor) [%] | Emax (5-HT2A receptor [6]) [%] | Ki (5-HT2B receptor [7]) [nM] | EC50 (5-HT2B receptor [1]) [nM] | EC50 (5-HT1A receptor) [nM] | microsomal CLint (in vitro [3]) [µL/min/mg] | half-life (in vitro [3]) [min] | microsomal CLint (in vitro [4]) [µL/min/mg] | half-life (in vitro [4]) [min] | microsomal CLint (in vitro [5]) [µL/min/mg] | half-life (in vitro [5]) [min] | EC50 (5-HT2C receptor) [nM] | Emax (5-HT2C receptor) [%] | Ki (5-HT2A receptor [8]) [nM] | EC50 (5-HT2A receptor [6]) [nM] | other results
CCN(CC)C(=O)[C@@H]1C=C2c3cccc4[nH]cc(c34)C[C@H]2N(CCC(F)(F)F)C1 [Compound 12, (6aR,9R)—N,N-diethyl-7-(3,3,3-trifluoropropyl)-4,6,6a,7,8,9-hexahydroindolo[4,3-fg]quinoline-9-carboxamide] | 29.6 | 71.4 | 78.7 | – | – | – | – | – | – | – | – | – | – | – | – | – | Emax (5-HT1B receptor): 95.5%; Emax [2]: 2.08%; half-life (t1/2) (in vitro [3]): 13.5 min; half-life (t1/2) (in vitro [4]): 2.1 min; half-life (t1/2) (in vitro [5]): 5.9 min
CN(C)C(=O)[C@@H]1C=C2c3cccc4[nH]cc(c34)C[C@H]2N(Cc2ccccc2)C1 [Compound 102, (6aR,9R)-7-benzyl-N,N-dimethyl-4,6,6a,7,8,9-hexahydroindolo[4,3-fg]quinoline-9-carboxamide] | 5.86 | 90.1 | 65.2 | 170 | > 10000 | 26200 | 16.9 | 82 | 111 | 12.5 | 134 | 10.3 | 685 | 76.6 | 10.8 | 155 | –
CCN(C)C(=O)[C@@H]1C=C2c3cccc4[nH]cc(c34)C[C@H]2N(Cc2cccc(OC)c2)C1 [Compound 92, (6aR,9R)—N-ethyl-7-(3-methoxybenzyl)-N-methyl-4,6,6a,7,8,9-hexahydroindolo[4,3-fg]quinoline-9-carboxamide] | 0.48 | 21.6 | 53.8 | 1950 | > 10000 | > 100000 | 140 | 9.9 | 321 | 4.3 | 278 | 5 | > 10000 | 12.5 | 11.1 | 793 | –
CCN(C)C(=O)[C@@H]1C=C2c3cccc4[nH]cc(c34)C[C@H]2N(CC2CCCC2)C1 [Compound 103, (6aR,9R)-7-(cyclopentylmethyl)-N-ethyl-N-methyl-4,6,6a,7,8,9-hexahydroindolo[4,3-fg]quinoline-9-carboxamide] | 5.54 | 122 | 80.1 | 11.7 | > 10000 | 84400 | 121 | 11.4 | 277 | 5 | 185 | 7.5 | > 10000 | 21.7 | 1.6 | 422 | –
